pIC50: −log10 of the molar value. Entries after “also recorded” stand apart in the source; their conditions may differ.
What was measured:
[1] = molecular target: T1, human ERα receptor (Homo sapiens, UniProt P03372); test: Estrogen Receptor luciferase assay in HEK293 cells transfected with ERα; format: cell-based; conditions: HEK293 transfected with ERα and luciferase reporter, compared with estradiol, Fig 3A/3B
T1 construct: host or cells: HEK293
T1 sequence (P03372 1-595): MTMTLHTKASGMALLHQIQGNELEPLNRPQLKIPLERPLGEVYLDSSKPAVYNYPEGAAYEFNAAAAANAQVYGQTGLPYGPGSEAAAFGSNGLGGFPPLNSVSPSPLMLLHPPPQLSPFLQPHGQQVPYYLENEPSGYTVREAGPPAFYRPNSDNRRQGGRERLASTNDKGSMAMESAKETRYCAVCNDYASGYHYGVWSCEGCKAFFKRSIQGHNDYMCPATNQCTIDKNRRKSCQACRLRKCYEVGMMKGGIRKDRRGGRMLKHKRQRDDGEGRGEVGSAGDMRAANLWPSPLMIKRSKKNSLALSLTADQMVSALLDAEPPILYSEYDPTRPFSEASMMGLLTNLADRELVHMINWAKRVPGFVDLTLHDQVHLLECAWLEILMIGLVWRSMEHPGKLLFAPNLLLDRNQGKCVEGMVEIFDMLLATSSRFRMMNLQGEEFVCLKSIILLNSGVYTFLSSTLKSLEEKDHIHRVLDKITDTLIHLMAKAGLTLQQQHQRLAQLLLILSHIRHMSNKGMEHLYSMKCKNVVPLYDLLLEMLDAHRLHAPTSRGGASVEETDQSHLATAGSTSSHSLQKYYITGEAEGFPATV
Excerpt: (§1) To obtain a eukaryotic vector expressing only the ER-α nuclear receptor, a construct was designed by cloning a KpnI-BamHI fragment from plasmid pEGFP-C1-ERα containing the ERα coding sequence that includes a stop signal into the pEGFP-N3 plasmid (Clontech Laboratories, Palo Alto, CA) under the control of the CMV promoter. This construction was termed pEGFP-N-ERα, and although it encoded both human ERα receptor and GFP protein, only the former is expressed. For mock transfections, pEGFP-N3 plasmid was digested with BglII and NotI and religated after polishing DNA ends to remove GFP coding sequence. Plasmid sequence was confirmed by automatic sequencing. Prior to transfection, cells were seeded in 48 well plates at density of 1.5 x 10^4 cells/well and incubated for 24 h to reach a cell confluence of 80–90%. […] MCF-7 cells, which endogenously express ERα receptor, were transfected with p3xERRE/ERE-luciferase plus the pRLTK Renilla luciferase control plasmid (95:5). Firefly and Renilla luciferase activities were measured using the Dual Luciferase Assay System (Promega, Madison, WI, USA), following a standard protocol using a Sirius L luminometer (Berthold Technologies, Bad Wildbad, Germany). Data were expressed as relative changes in luciferase activity and normalized to 100%.

[2] = MTT assay, CCD39Lu; format: cell-based; conditions: human, CCD39Lu cells (non-tumorigenic lung fibroblasts), read-out: Cytotoxic activity IC50, CCD39Lu
Procedure: (§2) The cell lines used in the cytotoxicity study, besides MCF-12A, were purchased from European Collection of Cell Culture (ECACC, Salisbury, UK): HEK293 (human embryonic kidney, ATTC no. CRL-1573), A549 (Human lung carcinoma, ECACC no. 86012804), CCD39Lu (Human lung fibroblasts, ECACC no. 90110512), MCF-7 (Human breast adenocarcinoma, ECACC no. 86012803) and MDA-MB-231 (Human breast adenocarcinoma ECACC no. 92020424). Cell lines were cultured in DMEM medium without phenol red and supplemented with 10% (v/v) FBS, 1% penicillin-streptomycin and 1% L-glutamine. MCF-12A (ATTC no. […]) was purchased from American Type Culture Collection (ATCC Manassas, VA 20110 USA). MCF-12A cells were kept in 1:1 mixture of Dulbecco’s modified Eagle’s medium and Ham’s F12 medium, 20 ng/ml human epidermal growth factor, 100 ng/ml cholera toxin, 0.01 mg/ml bovine insulin, 500 ng/ml hydrocortisone and 5% horse serum. All cell lines were cultured at 37°C, in a humidified atmosphere containing 5% CO2.
(§3) Compounds were dissolved in DMSO to the final concentration of […]. A549, CCD39Lu, MCF-7, MDA-MB-231 and MCF-12A cells were seeded in 96 wells plates at density 2x10^4 cells/well and incubated overnight as described above. Subsequently, cells were treated with tested compounds at concentrations: 100 μM; 50 μM; 25μM; 12.5μM; 6 μM; 3 μM; 1.5 μM. […] Cells were incubated 72 h at 37°C in a humidified atmosphere containing 5% CO2 in the cell culture media appropriate for each cell line. Then, the medium was aspirated and 170 μl MTT solution (5mg/ml) was added to each well. Plates were incubated for 2 hours at 37°C, and then plates were centrifuged at 1200 rpm for 3 minutes. The formazan crystals were dissolved in 200 μl DMSO and plates were further agitated on a plate shaker at 300–500 rpm for 10 minutes. Absorbance at 570 nm (with reference wavelenght 650 nm) was measured using a plate reader (Biotek Instruments, Elx-800). Cell viability was calculated as a percentage relative to the control.

[3] = tested on: MCF-7 cells; test: MTT assay, MCF-7; format: cell-based, human; conditions: for Activity in MTT assay (in words), MCF-7: 72 h; for pIC50: Homo sapiens, MCF7, 72 h, estrogen dependent breast adenocarcinoma, read-out: Cytotoxic activity IC50, MCF-7
Procedure: as §2, §3

[4] = tested on: A549 cells; test: MTT assay, A549; format: cell-based; conditions: Homo sapiens, 72 h, lung adenocarcinoma, read-out: Cytotoxic activity IC50, A549
Procedure: as §2, §3

[5] = molecular target: T2, estrogen receptor (Homo sapiens, UniProt P03372); test: Estrogen Receptor luciferase assay in MCF-7 cells (endogenous ER); format: cell-based; conditions: MCF-7 transfected with p3xERRE/ERE-luciferase, Fig 3C
T2 construct: MCF-7 cells, which endogenously express ERα receptor; endogenous in cells; host or cells: MCF-7
T2 sequence (P03372 1-595): T1 sequence (P03372 1-595)
Excerpt: as §1

[6] = MTT assay, MCF-12A; format: cell-based; conditions: human, MCF-12A cells (non-tumorigenic breast epithelial), read-out: Cytotoxic activity IC50, MCF-12A
Procedure: as §2, §3

[7] = tested on: MDA-MB-231 cells; test: MTT assay, MDA-MB-231; format: cell-based, human; conditions: for pIC50: Homo sapiens, MDA-MB-231, 72 h, estrogen independent breast adenocarcinoma, read-out: Cytotoxic activity IC50, MDA-MB-231
Procedure: as §2, §3

[8] = tested on: MCF-7 cells; test: Sulphorodamine B assay, MCF-7; format: cell-based, human; conditions: 72 h, Fig 2
Procedure: In addition to the MTT assay, cell viability was measured by the Sulphorodamine B assay according to Vichai and Kirtikara. The MCF-7 and MDA-MB-23 cells were seeded and treated as for the MTT assay. After incubation the medium was removed and the cells were fixed with cold (4°C) trichloroacetic acid (final concentration 10%) for 1h. Than plates were washed 4 times with water and stained for 30 min, following by staining with sulforhodamine B (SRB) 0.4% in 1% acetic acid solution at room temperature for 20 min. After staining, the SRB solution was removed and the plates washed 5 times with 1% acetic acid dried. Bound SRB was solubilized with 200 μl 10 mM unbuffered Tris-base solution and plates were shaked for 10 min. The absorbance at 510 nm was measured using a plate reader (Biotek Instruments, Elx-800).

[9] = tested on: MCF-7 cells; test: LDH release assay, MCF-7; format: cell-based, human; conditions: 72 h, Fig 2
Procedure: Cytotoxicity was evaluated by measuring the cell membrane permeability, using a LDH assay kit purchased from Cayman Chemical (Ann Arbor USA). The LDH assay was performed for MCF-7 and MDA-MB-231 cells (seeded at 2×10^4 density). As a positive control cell permeabilization with 1%Triton X-100 was used. The assay was performed 72h after start the incubation. Briefly, the plates were centrifuged at 400 ×g for 5 minutes, and 100 μL of supernatant were transferred from each well to the new 96-well plate and analyzed according to the manufacturer’s protocol. 100 μL of reaction mixture, containing lactic acid, NAD^+, tetrazolium salt and diaphorase, was added to each well. Plates were incubated on an orbital shaker for 30 minutes at room temperature and the absorbance at 490 nm was measured with a plate reader (Biotek Instruments, Elx-800). Results were expressed as a percentage of the total value of the positive control.

Row | Structure (SMILES) | ER dependent transcriptional activity [1] | IC50 at 72 h [2] [µM] | Activity in MTT assay (in words), MCF-7 [3] | pIC50 [3] | pIC50 [4] | Transcriptional (luciferase) activity in MCF-7 [5] | IC50 at 72 h [6] [µM] | pIC50 [7] | Effect in SRB assay, MCF-7 [8] | LDH release, MCF-7 [9] | Toxicity/effect in MTT assay (in words), MDA-MB-231 ([7]; 72 h)
1 | COc1cc(NC(=O)c2cc(C)c(C)cc2[N+](=O)[O-])cc(OC)c1OC [Compound 6] | capable to mediate ER dependent transcriptional activity in a similar mode than estradiol | > 100 | significant activity | 4.61 | < 4.00 | much lower | > 100 | < 4.00 | – | – | –
2 | COc1ccc(NC(=O)c2cc(Cl)ccc2[N+](=O)[O-])cc1 [Compound 3] | – | > 100 | – | < 4.00 | < 4.00 | – | > 100 | < 4.00 | – | – | –
3 | COc1ccc(NC(=O)c2ccc(OC)cc2[N+](=O)[O-])cc1 [Compound 4] | did not stimulate ER dependent transcriptional activity | 48.8 | significant activity | 4.55 | 4.52 | – | > 100 | 4.17 | – | – | –
4 | O=C(Nc1ccccc1C(=O)Nc1cc(F)c(F)c(F)c1)c1cc(F)c(F)c(F)c1 [Compound 9] | – | > 100 | – | < 4.00 | < 4.00 | – | > 100 | < 4.00 | – | – | –
5 | COc1ccc(NC(=O)c2ccc(F)cc2[N+](=O)[O-])cc1 [Compound 2] | did not stimulate ER dependent transcriptional activity | 45.2 | significant activity | 4.42 | 4.32 | – | > 100 | 4.40 | – | – | –
6 | COc1cc(NC(=S)c2cccc(NC(=S)c3cc(OC)c(OC)c(OC)c3)c2)cc(OC)c1OC [Compound 20] | – | > 100 | – | < 4.00 | < 4.00 | – | > 100 | < 4.00 | – | – | –
7 | COc1ccc(NC(=O)c2cc(C)c(C)cc2[N+](=O)[O-])cc1 [Compound 5] | – | > 100 | – | < 4.00 | < 4.00 | – | > 100 | 4.04 | – | – | –
8 | COc1ccc(NC(=S)c2cccc(NC(=S)c3ccc(OC)cc3)c2)cc1 [Compound 15] | capable to mediate ER dependent transcriptional activity in a similar mode than estradiol | > 100 | significant activity; also recorded: strong effect | 4.75 | < 4.00 | – | > 100 | < 4.00 | strong effect | relatively low increase | –
9 | O=C(Nc1cc(F)c(F)c(F)c1)c1ccccc1[N+](=O)[O-] [Compound 8] | – | > 100 | – | < 4.00 | < 4.00 | – | > 100 | < 4.00 | – | – | –
10 | COc1cc(NC(=S)c2ccccc2NC(=S)c2cc(OC)c(OC)c(OC)c2)cc(OC)c1OC [Compound 13] | – | > 100 | – | < 4.00 | < 4.00 | – | > 100 | < 4.00 | – | – | –
11 | COc1ccc(NC(=O)c2ccccc2NC(=O)COC(C)=O)cc1 [Compound 19] | – | 47.9 | – | < 4.00 | 4.14 | – | > 100 | < 4.00 | – | – | –
12 | COc1ccc(NC(=O)c2ccc(NC(=O)c3ccc(OC)cc3)cc2)cc1 [Compound 17] | – | > 100 | – | < 4.00 | < 4.00 | – | > 100 | < 4.00 | – | – | –
13 | O=C(Nc1cc(F)c(F)c(F)c1F)c1ccccc1NC(=O)c1cc(F)c(F)c(F)c1F [Compound 12] | did not stimulate ER dependent transcriptional activity | 61.4 | – | < 4.00 | < 4.00 | – | > 100 | 4.40 | – | – | –
14 | Fc1cc(NC(=S)c2ccccc2NC(=S)c2cc(F)c(F)c(F)c2)cc(F)c1F [Compound 10] | – | 0.76 | significant activity | 6.43 | 6.39 | – | 1.22 | 6.28 | – | – | significant degree of toxicity
15 | COc1cc(NC(=O)c2ccccc2[N+](=O)[O-])cc(OC)c1OC [Compound 7] | – | > 100 | – | < 4.00 | 4.03 | – | > 100 | < 4.00 | – | – | –
16 | COc1ccc(NC(=O)c2ccccc2[N+](=O)[O-])cc1 [Compound 1] | – | 96.3 | – | 4.13 | 4.03 | – | > 100 | 4.10 | – | – | –
17 | COc1cc(NC(=S)c2ccc(NC(=S)c3cc(OC)c(OC)c(OC)c3)cc2)cc(OC)c1OC [Compound 16] | did not stimulate ER dependent transcriptional activity | 6.48 | – | 4.16 | < 4.00 | – | > 100 | 4.52 | – | – | –
